Results taken from patent US9828349B2, “1-aryl-1-hydroxy-2,3-diamino-propyl amines, 1-heteroaryl-1-hydroxy-2,3-diamino-propyl amines and related compounds having analgesic and/or immuno stimulant activity” (Allergan, Inc., priority 2005, dated 2017).

Experiments:
[1] = test system: tactile allodynia (Chung model); assay: Chung model: reversal of tactile allodynia after spinal nerve ligation (von Frey hairs); type: in vivo; conditions: highest % allodynia reversal out of 15, 30, 60 min post-drug, rat
Text: An art-accepted model or assay for measuring an analgesic effect of a compound in chronic pain (in particular peripheral neuropathy) is the model known as Kim and Chung 1992, Pain […], pp 355-363 (Chung model). This model involves the surgical ligation of the L5 (and optionally the L6) spinal nerves on one side in experimental animals. Rats recovering from the surgery gain weight and display a level of general activity similar to that of normal rats. However, these rats develop abnormalities of the foot, wherein the hindpaw is moderately everted and the toes are held together. More importantly, the hindpaw on the side affected by the surgery appears to become sensitive to low-threshold mechanical stimuli and will perceive pain instead of the faint sensation of touch. This sensitivity to normally non-painful touch, called “tactile allodynia”, develops within the first week after surgery and lasts for at least two months. The allodynia response includes lifting the affected hindpaw to escape from the stimulus, licking the paw and holding it in the air for many seconds. None of these responses is normally seen in the control group.
To produce the tactile allodynia, rats are anesthetized before surgery. The surgical site is shaved and prepared either with betadine or Novacaine. Incision is made from the thoracic vertebra XIII down toward the sacrum. Muscle tissue is separated from the spinal vertebra (left side) at the L4-S2 levels. […]
Tactile allodynia is assessed via von Frey hairs, which are a series of fine hairs with incremental differences in stiffness. […] The applied force has been calculated to range from 0.41 to 15.1 grams. […] The 50% paw withdrawal threshold is determined using the method of Dixon, W. J., Ann. […] Tactile allodynia is measured prior to and 15, 30, and 60 minutes after drug administration. The post-drug threshold is compared to the pre-drug threshold and the percent reversal of tactile sensitivity is calculated based on a normal threshold of 15.1 grams. […]

GlcCer synthase = target: T1, GlcCer synthase (Homo sapiens, UniProt Q16739); conditions: cited from earlier work
T1 sequence (Q16739 1-394): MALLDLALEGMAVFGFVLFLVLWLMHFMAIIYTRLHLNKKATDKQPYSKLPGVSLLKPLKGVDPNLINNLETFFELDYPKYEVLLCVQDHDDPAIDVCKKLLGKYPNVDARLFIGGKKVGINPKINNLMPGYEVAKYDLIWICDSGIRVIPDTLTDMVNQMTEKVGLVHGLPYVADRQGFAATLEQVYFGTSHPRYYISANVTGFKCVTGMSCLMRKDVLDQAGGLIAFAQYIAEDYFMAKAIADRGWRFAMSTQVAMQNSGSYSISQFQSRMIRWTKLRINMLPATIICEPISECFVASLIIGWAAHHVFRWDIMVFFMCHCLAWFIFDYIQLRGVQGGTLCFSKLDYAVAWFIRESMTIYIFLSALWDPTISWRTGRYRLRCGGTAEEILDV

[2] = test system: spatial memory deficit after transient forebrain ischemia; conditions: treatment after transient forebrain ischemia in rats; cited from earlier work

Structure (SMILES)	Peak % Pain reversal ([1]; 300 μg/kg IP) [%]	inhibition of GCS (glucosylceramide synthase) (GlcCer synthase)	also measured
N[C@@H](CN1CCCC1)[C@@H](O)c1ccncc1 (racemic) [Compound 46, DL-threo-2-amino-1-(pyridin-4-yl)-3-(pyrrolidin-1-yl)propan-1-ol]			Peak % Pain reversal ([1]; 30 μg/kg IP): 96%
Cl.O=C(N[C@@H](CN1CCOCC1)[C@@H](O)c1ccccc1)OCc1ccccc1 [Compound 1, benzyl L-threo-1-hydroxy-3-morpholino-1-phenylpropan-2-ylcarbamate hydrochloride]	44		
CC(=O)O[C@@H](c1ccccc1)[C@H](CN1CCOCC1)NC(=O)OCc1ccccc1.Cl [Compound 3, benzyl L-threo-1-acetoxy-3-morpholino-1-phenylpropan-2-ylcarbamate hydrochloride]	92		
CCCCCCCCCCCCCCCC(=O)N[C@H](CN1CCCC1)[C@H](O)c1ccc(O)cc1 [D-threo-4′-hydroxy-P4]		one of the most potent inhibitor of GCS	
CCCCCCCCCC(=O)N[C@@H](CN1CCOCC1)[C@@H](O)c1ccccc1 [L-threo-PDMP, (1S,2S)-1-phenyl-2-decanoylamino-3-morpholino-1-propanol]			deficit of a well learned spatial memory (8-arm maze task) [2]: ameliorated the deficit of a well learned spatial memory
O=C(N[C@H](CN1CCCC1)[C@H](O)c1ccccc1)OCc1ccccc1 [PBPP, D-threo-1-phenyl-2-benzyloxycarbonylamino-3-pyrrolidino-1-propanol]		potent GCS inhibitor	
